# Data: patent EP1561465A2, “Methods of use of fluoroquinolone compounds against bacteria” (LG Life Sciences, Ltd., priority 1999, dated 2001)
# Where two headings read alike, the source gives them in different places.
# Assays:
# Format in all cases: cell-based
# Aeromonas spp. = experiment: MIC by agar dilution (NCCLS M7-A4), 288 enteropathogenic isolates, gemifloxacin and 15 other antimicrobials; conditions: Aeromonas spp. N= 16
# Streptococcus pneumoniae = experiment: MIC by broth microdilution (NCCLS), dried MicroScan panels, clinical isolates 1998-1999; conditions: for MIC90: Streptococcus pneumoniae
# Acinetobacter spp. = experiment: MIC by agar dilution (NCCLS), 322 nosocomial Gram negative isolates, Athens 1998; conditions: n = 38 strains
# Yersinia enterocolitica = experiment: MIC by agar dilution (NCCLS M7-A4), 288 enteropathogenic isolates, gemifloxacin and 15 other antimicrobials; conditions: Yersinia enterocolitica N= 22
# Pseudomonas aeruginosa = experiment: MIC by agar dilution (NCCLS), 322 nosocomial Gram negative isolates, Athens 1998; conditions: n = 57 isolates
# Hafnia alvei = experiment: MIC by agar dilution (NCCLS M7-A4), 288 enteropathogenic isolates, gemifloxacin and 15 other antimicrobials; conditions: Hafnia alvei N= 32
# Shigella spp. = experiment: as above; conditions: Shigella spp. N= 21
# In short: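 Agar dilution with ~10^4 cfu/spot inoculum; plates incubated aerobically at 35 °C for 24 h, except C. jejuni, held microaerophilically for 48 h. MIC taken as lowest antibiotic concentration with no visible growth.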
# Haemophilus influenzae = experiment: MIC by broth microdilution (NCCLS), dried MicroScan panels, clinical isolates 1998-1999; conditions: for MIC90: Haemophilus influenzae
# [1] = test system: Staphylococcus epidermidis; experiment: MIC by NCCLS broth microdilution, 1100 Japanese clinical isolates 1997-1998; conditions: for MIC50 / MIC90: Staphylococcus epidermidis
# Staphylococcus aureus = experiment: microbe, parasite or virus in culture; conditions: Staphylococcus aureus
# Citrobacter freundii = experiment: MIC by NCCLS broth microdilution, 1100 Japanese clinical isolates 1997-1998
# [2] = Streptococcus pneumoniae (302 isolates)
# [3] = 24 h, read-out: MIC (mg/L) Range
# [4] = Haemophilus influenzae (300 isolates)
# [5] = Staphylococcus epidermidis oxacillin susceptible (n=35)
# [6] = Staphylococcus epidermidis oxacillin resistant (n=43)
smiles,measurement,setting,value
"Cc1c(F)c(N2CCNC(C)C2)cc2c1c(=O)c(C(=O)O)cn2C1CC1 (centres unmarked) [Grepafloxacin, grepafloxacin]",MIC (mg/L) Range,Aeromonas spp.,≤0.015 to 0.12 mg/L
same,MIC,Aeromonas spp.; read-out: MIC (mg/L) 50%,0.03 mg/L
same,MIC,Aeromonas spp.; read-out: MIC (mg/L) 90%,0.06 mg/L
same,MIC50,Streptococcus pneumoniae; [2],0.03 µg/mL
same,MIC Range,Streptococcus pneumoniae; [2],≤0.015 to 0.25 µg/mL
same,MIC90,Streptococcus pneumoniae; Erythromycin-resistant (86),0.12 µg/mL
same,MIC90,Streptococcus pneumoniae; Erythromycin-sensitive (216),0.25 µg/mL
same,MIC90,Streptococcus pneumoniae; Penicillin-intermediate (124),0.12 µg/mL
same,MIC90,Streptococcus pneumoniae; Penicillin-resistant (80),0.12 µg/mL
same,MIC90,Streptococcus pneumoniae; Penicillin-sensitive (98),0.12 µg/mL
same,MIC90,Streptococcus pneumoniae; [2],0.12 µg/mL
same,MIC50,Acinetobacter spp.; Acinetobacter,2 µg/mL
same,MIC90,Acinetobacter spp.; Acinetobacter,64 µg/mL
same,MIC Range,Acinetobacter spp.,≤0.03 to 64 µg/mL
same,MIC,Yersinia enterocolitica; [3],0.015 to 0.25 mg/L
same,MIC,Yersinia enterocolitica; read-out: MIC (mg/L) 50%,0.03 mg/L
same,MIC,Yersinia enterocolitica; read-out: MIC (mg/L) 90%,0.03 mg/L
same,MIC50,Pseudomonas aeruginosa,1 µg/mL
same,MIC90,Pseudomonas aeruginosa,> 64 µg/mL
same,MIC,Hafnia alvei; [3],0.015 to 0.06 mg/L
same,MIC,Hafnia alvei; read-out: MIC (mg/L) 50%,0.03 mg/L
same,MIC,Hafnia alvei; read-out: MIC (mg/L) 90%,0.06 mg/L
same,MIC,Shigella spp.; [3],0.015 to 0.03 mg/L
same,MIC,Shigella spp.; read-out: MIC (mg/L) 50%,≤ 0.015 mg/L
same,MIC,Shigella spp.; read-out: MIC (mg/L) 90%,0.03 mg/L
same,MIC50,Haemophilus influenzae; [4],≤ 0.015 µg/mL
same,MIC Range,Haemophilus influenzae; [4],≤0.015 to 0.12 µg/mL
same,MIC90,Haemophilus influenzae; [4],≤ 0.015 µg/mL
same,MIC90,Haemophilus influenzae; β-lactamase negative (234),≤ 0.015 µg/mL
same,MIC90,Haemophilus influenzae; β-lactamase positive (66),0.03 µg/mL
"NC1CCN(c2nc3c(cc2F)c(=O)c(C(=O)O)cn3-c2ccc(F)cc2F)C1 (centres unmarked) [Tosufloxacin, tosufloxacin]",MIC Range,[1]; [5],0.032 to 16 µg/mL
same,MIC50,[1]; [6],8 µg/mL
same,MIC90,[1]; [6],> 16 µg/mL
same,MIC50,[1]; [5],0.063 µg/mL
same,MIC90,[1]; [5],4 µg/mL
same,MIC,"Staphylococcus aureus; S. aureus KU2240, mutant type Wild (wild strain)",0.063 µg/mL
same,MIC,"Staphylococcus aureus; S. aureus KU2241, mutant type NorA (efflux-mediated quinolone resistant)",0.125 µg/mL
same,MIC,"Staphylococcus aureus; S. aureus KU2242, mutant type T (DNA topoisomerase IV)",0.25 µg/mL
same,MIC,"Staphylococcus aureus; S. aureus KU2243, mutant type G+T (DNA gyrase and topoisomerase IV)",> 128 µg/mL
same,MIC,"Staphylococcus aureus; S. aureus KU2244, mutant type G (DNA gyrase)",0.125 µg/mL
same,MIC,"Staphylococcus aureus; S. aureus KU2246, mutant type T (DNA topoisomerase IV)",0.5 µg/mL
same,MIC50,Citrobacter freundii; Citrobacter freundii,0.125 µg/mL
same,MIC90,Citrobacter freundii; Citrobacter freundii (n=39),2 µg/mL
same,MIC Range,Citrobacter freundii; Citrobacter freundii (n=39),0.016 to 2 µg/mL
